What follows are compounds tested against CCR2 (Homo sapiens (Human), UniProt P41597) (assay: Calcium activity assayed on the FLIPR Tetra in HEK-Gqi5 cells stably expressing CCR2). Conditions: FLIPR Tetra calcium assay.
Type: cell-based

Chain of CCR2 (P41597 whole entry, species assumed): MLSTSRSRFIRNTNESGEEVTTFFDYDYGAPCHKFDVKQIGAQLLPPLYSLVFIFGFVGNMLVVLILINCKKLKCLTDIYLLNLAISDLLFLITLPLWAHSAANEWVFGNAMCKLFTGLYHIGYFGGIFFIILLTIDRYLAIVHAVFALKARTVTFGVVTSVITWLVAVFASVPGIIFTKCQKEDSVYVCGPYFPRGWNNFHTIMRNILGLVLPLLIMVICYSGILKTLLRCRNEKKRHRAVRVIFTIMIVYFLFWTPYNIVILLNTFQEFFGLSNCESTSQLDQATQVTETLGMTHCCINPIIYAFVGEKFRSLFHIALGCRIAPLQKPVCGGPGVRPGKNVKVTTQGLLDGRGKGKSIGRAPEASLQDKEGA

Structure (SMILES) | CCR2 % ANTAGONISM [%] | IC50 [nM]
O=C1NCC(CS(=O)(=O)c2ccc(Cl)cc2NS(=O)(=O)c2cc3ccccc3o2)O1 (stereo not drawn) [N-(5-chloro-2-{[(2-oxo-1,3-oxazolidin-5-yl)methyl]sulfonyl}phenyl)-1-benzofuran-2-sulfonamide] | 98 | 2560
O=[N+]([O-])c1cc(C[S+]([O-])c2ccc(Cl)cc2NS(=O)(=O)c2cc3ccccc3o2)n[nH]1 (stereo not drawn) [N-(5-chloro-2-{[(5-nitro-1H-pyrazol-3-yl)methyl]sulfinyl}phenyl)-1-benzofuran-2-sulfonamide] | 94 | 752
O=[N+]([O-])c1cc(CSc2ccc(Cl)cc2NS(=O)(=O)c2cc3ccccc3o2)n[nH]1 [N-(5-chloro-2-{[(5-nitro-1H-pyrazol-3-yl)methyl]thio}phenyl)-1-benzofuran-2-sulfonamide] | 91 | 
O=S(=O)(Nc1cc(Cl)ccc1[S+]([O-])Cc1ccccc1)c1cc2ccccc2o1 (stereo not drawn) [N-[2-(benzylsulfinyl)-5-chlorophenyl]-1-benzofuran-2-sulfonamide] | 85 | 27
N#Cc1ccc([S+]([O-])Cc2ccccc2)c(NS(=O)(=O)c2cc3ccccc3o2)c1 (stereo not drawn) [N-[2-(benzylsulfinyl)-5-cyanophenyl]-1-benzofuran-2-sulfonamide] | 105 | 50
O=S(=O)(Cc1ccccc1)c1ccc(Cl)cc1NS(=O)(=O)c1cc2ccccc2o1 [N-[2-(benzylsulfonyl)-5-chlorophenyl]-1-benzofuran-2-sulfonamide] | 90 | 34
N#Cc1ccc(S(=O)(=O)Cc2ccccc2)c(NS(=O)(=O)c2cc3ccccc3o2)c1 [N-[2-(benzylsulfonyl)-5-cyanophenyl]-1-benzofuran-2-sulfonamide] | 95 | 56
O=S(=O)(Nc1cc(Cl)ccc1SCc1ccccc1)c1cc2ccccc2o1 [N-[2-(benzylthio)-5-chlorophenyl]-1-benzofuran-2-sulfonamide] | 90 | 129
N#Cc1ccc(SCc2ccccc2)c(NS(=O)(=O)c2cc3ccccc3o2)c1 [N-[2-(benzylthio)-5-cyanophenyl]-1-benzofuran-2-sulfonamide] | 78 | 3840
NC(=O)NCC[S+]([O-])c1ccc(Cl)cc1NS(=O)(=O)c1cc2ccccc2o1 (stereo not drawn) [N-[2-({2-[(aminocarbonyl)amino]ethyl}sulfinyl)-5-chlorophenyl]-1-benzofuran-2-sulfonamide] | 64 | 1890
NC(=O)NCCS(=O)(=O)c1ccc(Cl)cc1NS(=O)(=O)c1cc2ccccc2o1 [N-[2-({2-[(aminocarbonyl)amino]ethyl}sulfonyl)-5-chlorophenyl]-1-benzofuran-2-sulfonamide] | 68 | 2000
NC(=O)NCCSc1ccc(Cl)cc1NS(=O)(=O)c1cc2ccccc2o1 [N-[2-({2-[(aminocarbonyl)amino]ethyl}thio)-5-chlorophenyl]-1-benzofuran-2-sulfonamide] | 103 | 80
C[S+]([O-])c1ccc(Cl)cc1NS(=O)(=O)c1cc2ccccc2o1 (stereo not drawn) [N-[5-chloro-2-(methylsulfinyl)phenyl]-1-benzofuran-2-sulfonamide] | 98 | 11
C[S+]([O-])c1ccc(Cl)cc1NS(=O)(=O)c1ccc(F)cc1F (stereo not drawn) [N-[5-chloro-2-(methylsulfinyl)phenyl]-2,4-difluorobenzenesulfonamide] | 98 | 236
C[S+]([O-])c1ccc(Cl)cc1NS(=O)(=O)c1ccc(C(F)(F)F)c([N+](=O)[O-])c1 (stereo not drawn) [N-[5-chloro-2-(methylsulfinyl)phenyl]-3-nitro-4-(trifluoromethyl)benzenesulfonamide] | 97 | 54
C[S+]([O-])c1ccc(Cl)cc1NS(=O)(=O)c1ccc(I)cc1 (stereo not drawn) [N-[5-chloro-2-(methylsulfinyl)phenyl]-4-iodobenzenesulfonamide] | 95 | 258
CC(C)c1ccc(S(=O)(=O)Nc2cc(Cl)ccc2[S+](C)[O-])cc1 (stereo not drawn) [N-[5-chloro-2-(methylsulfinyl)phenyl]-4-isopropylbenzenesulfonamide] | 68 | 934
Cc1ccc(S(=O)(=O)Nc2cc(Cl)ccc2[S+](C)[O-])cc1[N+](=O)[O-] (stereo not drawn) [N-[5-chloro-2-(methylsulfinyl)phenyl]-4-methyl-3-nitrobenzenesulfonamide] | 101 | 181
Cc1ccc(S(=O)(=O)Nc2cc(Cl)ccc2[S+](C)[O-])o1 (stereo not drawn) [N-[5-chloro-2-(methylsulfinyl)phenyl]-5-methylfuran-2-sulfonamide] | 76 | 194
C[S+]([O-])c1ccc(Cl)cc1NS(=O)(=O)c1ccccc1 (stereo not drawn) [N-[5-chloro-2-(methylsulfinyl)phenyl]benzenesulfonamide] | 48 | 
C[S+]([O-])c1ccc(Cl)cc1NS(=O)(=O)c1ccco1 (stereo not drawn) [N-[5-chloro-2-(methylsulfinyl)phenyl]furan-2-sulfonamide] | 96 | 2320
C[S+]([O-])c1ccc(Cl)cc1NS(=O)(=O)c1cccs1 (stereo not drawn) [N-[5-chloro-2-(methylsulfinyl)phenyl]thiophene-2-sulfonamide] | 53 | 1110

Structure (SMILES) | CCR2 % ANTAGONISM [%] | IC50 [nM]
CS(=O)(=O)c1ccc(Cl)cc1NS(=O)(=O)c1cc2ccccc2o1 [N-[5-chloro-2-(methylsulfonyl)phenyl]-1-benzofuran-2-sulfonamide] | 93 | 42
CS(=O)(=O)c1ccc(Cl)cc1NS(=O)(=O)c1ccc(F)cc1F [N-[5-chloro-2-(methylsulfonyl)phenyl]-2,4-difluorobenzenesulfonamide] | 91 | 354
CS(=O)(=O)c1ccc(Cl)cc1NS(=O)(=O)c1ccc(C(F)(F)F)c([N+](=O)[O-])c1 [N-[5-chloro-2-(methylsulfonyl)phenyl]-3-nitro-4-(trifluoromethyl)benzenesulfonamide] | 97 | 213
CS(=O)(=O)c1ccc(Cl)cc1NS(=O)(=O)c1ccc(I)cc1 [N-[5-chloro-2-(methylsulfonyl)phenyl]-4-iodobenzenesulfonamide] | 92 | 1070
CC(C)c1ccc(S(=O)(=O)Nc2cc(Cl)ccc2S(C)(=O)=O)cc1 [N-[5-chloro-2-(methylsulfonyl)phenyl]-4-isopropylbenzenesulfonamide] | 0 | 
Cc1ccc(S(=O)(=O)Nc2cc(Cl)ccc2S(C)(=O)=O)cc1[N+](=O)[O-] [N-[5-chloro-2-(methylsulfonyl)phenyl]-4-methyl-3-nitrobenzenesulfonamide] | 89 | 207
Cc1ccc(S(=O)(=O)Nc2cc(Cl)ccc2S(C)(=O)=O)o1 [N-[5-chloro-2-(methylsulfonyl)phenyl]-5-methylfuran-2-sulfonamide] | 90 | 990
CS(=O)(=O)c1ccc(Cl)cc1NS(=O)(=O)c1ccco1 [N-[5-chloro-2-(methylsulfonyl)phenyl]furan-2-sulfonamide] | 99 | 345
CSc1ccc(Cl)cc1NS(=O)(=O)c1cc2ccccc2o1 [N-[5-chloro-2-(methylthio)phenyl]-1-benzofuran-2-sulfonamide] | 99 | 26
CSc1ccc(Cl)cc1NS(=O)(=O)c1ccc(F)cc1F [N-[5-chloro-2-(methylthio)phenyl]-2,4-difluorobenzenesulfonamide] | 87 | 
CSc1ccc(Cl)cc1NS(=O)(=O)c1ccc(C(F)(F)F)c([N+](=O)[O-])c1 [N-[5-chloro-2-(methylthio)phenyl]-3-nitro-4-(trifluoromethyl)benzenesulfonamide] | 90 | 491
CSc1ccc(Cl)cc1NS(=O)(=O)c1ccc(I)cc1 [N-[5-chloro-2-(methylthio)phenyl]-4-iodobenzenesulfonamide] | 71 | 2030
CSc1ccc(Cl)cc1NS(=O)(=O)c1ccc(C)c([N+](=O)[O-])c1 [N-[5-chloro-2-(methylthio)phenyl]-4-methyl-3-nitrobenzenesulfonamide] | 92 | 680
CSc1ccc(Cl)cc1NS(=O)(=O)c1ccc(C)o1 [N-[5-chloro-2-(methylthio)phenyl]-5-methylfuran-2-sulfonamide] | 77 | 70
CSc1ccc(Cl)cc1NS(=O)(=O)c1ccco1 [N-[5-chloro-2-(methylthio)phenyl]furan-2-sulfonamide] | 93 | 940
CSc1ccc(Cl)cc1NS(=O)(=O)c1cccs1 [N-[5-chloro-2-(methylthio)phenyl]thiophene-2-sulfonamide] | 0 | 
Nc1ccccc1C[S+]([O-])c1ccc(Cl)cc1NS(=O)(=O)c1cc2ccccc2o1 (stereo not drawn) [N-{2-[(2-aminobenzyl)sulfinyl]-5-chlorophenyl}-1-benzofuran-2-sulfonamide] | 93 | 115
Nc1ccccc1CS(=O)(=O)c1ccc(Cl)cc1NS(=O)(=O)c1cc2ccccc2o1 [N-{2-[(2-aminobenzyl)sulfonyl]-5-chlorophenyl}-1-benzofuran-2-sulfonamide] | 98 | 129
Nc1ccccc1CSc1ccc(Cl)cc1NS(=O)(=O)c1cc2ccccc2o1 [N-{2-[(2-aminobenzyl)thio]-5-chlorophenyl}-1-benzofuran-2-sulfonamide] | 91 | 100
NCC[S+]([O-])c1ccc(Cl)cc1NS(=O)(=O)c1ccc(Cl)c(C(F)(F)F)c1 (stereo not drawn) [N-{2-[(2-aminoethyl)sulfinyl]-5-chlorophenyl}-4-chloro-3-(trifluoromethyl)benzenesulfonamide] | 84 | 3530
NCCSc1ccc(Cl)cc1NS(=O)(=O)c1ccc(Cl)c(C(F)(F)F)c1 [N-{2-[(2-aminoethyl)thio]-5-chlorophenyl}-4-chloro-3-(trifluoromethyl)benzenesulfonamide] | 97 | 1070

From patent US9663460B2, “Sulfur derivatives as chemokine receptor modulators” (ALLERGAN, INC., priority 2010, dated 2017)
